Measurements published in ChEMBL document CHEMBL1201862, “PubChem BioAssay data set” (2004).
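Following 48 hours of exposure in 96-well plates, responses at five concentrations were used to interpolate endpoints linearly. Abbreviation: GI50, concentration required for 50% inhibition of growth.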 Activity calls are given as the source filed them. No stated cut-off is given here; in the data, active = GI50 up to about 1.1 µM and inactive = higher.

What was measured:
Experiment in all cases: NCI anticancer screen, dose series, 48 h
M14 = tested on: M14
SNB-75 = tested on: SNB-75
M19-MEL = tested on: M19-MEL
HCT-15 = tested on: HCT-15
XF498 = tested on: XF498
Malme-3M = tested on: Malme-3M
MOLT-4 = tested on: MOLT-4
SK-MEL-2 = tested on: SK-MEL-2
DMS-114 = tested on: DMS-114
K562 = tested on: K562
HCT-116 = tested on: HCT-116
RPMI-8226 = tested on: RPMI-8226
KM-20L2 = tested on: KM-20L2
NCI-H23 = tested on: NCI-H23
CCRF-CEM = tested on: CCRF-CEM
SK-MEL-28 = tested on: SK-MEL-28
HL-60 = tested on: HL-60
NCI-H226 = tested on: NCI-H226
UO-31 = tested on: UO-31
A549 = tested on: A549
A498 = tested on: A498
SW-620 = tested on: SW-620
786-0 = tested on: 786-0
SNB-19 = tested on: SNB-19
HCC 2998 = tested on: HCC 2998
IGROV-1 = tested on: IGROV-1
ACHN = tested on: ACHN
SR = tested on: SR
NCI-H460 = tested on: NCI-H460
UACC-62 = tested on: UACC-62
SN12C = tested on: SN12C
DMS-273 = tested on: DMS-273
DLD-1 = tested on: DLD-1
LXFL 529 = tested on: LXFL 529
RXF 393 = tested on: RXF 393
SF-268 = tested on: SF-268
CAKI-1 = tested on: CAKI-1
OVCAR-8 = tested on: OVCAR-8
OVCAR-4 = tested on: OVCAR-4
LOX IMVI = tested on: LOX IMVI
SF-539 = tested on: SF-539
SK-MEL-5 = tested on: SK-MEL-5
HOP-92 = tested on: HOP-92
OVCAR-3 = tested on: OVCAR-3
U-251 = tested on: U-251
RXF 631 = tested on: RXF 631
HT-29 = tested on: HT-29
SNB-78 = tested on: SNB-78
UACC-257 = tested on: UACC-257
TK-10 = tested on: TK-10
SF-295 = tested on: SF-295
NCI-H522 = tested on: NCI-H522
EKVX = tested on: EKVX
OVCAR-5 = tested on: OVCAR-5
HOP-62 = tested on: HOP-62
KM12 = tested on: KM12
COLO 205 = tested on: COLO 205
SK-OV-3 = tested on: SK-OV-3

## COc1ccc(/C=C/c2nnc(S)[nH]2)cc1
M14
  GI50: > 100 µM (inactive)
SNB-75
  GI50: > 100 µM (inactive)
M19-MEL
  GI50: > 100 µM (inactive)
HCT-15
  GI50: > 100 µM
XF498
  GI50: 79.3 µM (inactive)
Malme-3M
  GI50: > 100 µM (inactive)
MOLT-4
  GI50: > 100 µM (inactive)
SK-MEL-2
  GI50: > 100 µM (inactive)
DMS-114
  GI50: > 100 µM (inactive)
K562
  GI50: > 100 µM (inactive)
HCT-116
  GI50: > 100 µM (inactive)
RPMI-8226
  GI50: > 100 µM (inactive)
KM-20L2
  GI50: > 100 µM (inactive)
NCI-H23
  GI50: > 100 µM (inactive)
CCRF-CEM
  GI50: > 100 µM (inactive)
SK-MEL-28
  GI50: > 100 µM (inactive)
HL-60
  GI50: > 100 µM (inactive)
NCI-H226
  GI50: > 100 µM (inactive)
UO-31
  GI50: > 100 µM (inactive)
A549
  GI50: > 100 µM (inactive)
A498
  GI50: > 100 µM (inactive)
SW-620
  GI50: > 100 µM (inactive)
786-0
  GI50: > 100 µM (inactive)
SNB-19
  GI50: > 100 µM (inactive)
HCC 2998
  GI50: > 100 µM (inactive)
IGROV-1
  GI50: > 100 µM (inactive)
ACHN
  GI50: > 100 µM (inactive)
SR
  GI50: > 100 µM (inactive)
NCI-H460
  GI50: > 100 µM (inactive)
UACC-62
  GI50: > 100 µM (inactive)
SN12C
  GI50: > 100 µM (inactive)
DMS-273
  GI50: > 100 µM (inactive)
DLD-1
  GI50: > 100 µM (inactive)
LXFL 529
  GI50: > 100 µM (inactive)
RXF 393
  GI50: > 100 µM (inactive)
SF-268
  GI50: > 100 µM (inactive)
CAKI-1
  GI50: > 100 µM (inactive)
OVCAR-8
  GI50: > 100 µM (inactive)
OVCAR-4
  GI50: > 100 µM (inactive)
LOX IMVI
  GI50: > 100 µM (inactive)
SF-539
  GI50: > 100 µM (inactive)
SK-MEL-5
  GI50: > 100 µM (inactive)
HOP-92
  GI50: > 100 µM (inactive)
OVCAR-3
  GI50: > 100 µM (inactive)
U-251
  GI50: > 100 µM (inactive)
RXF 631
  GI50: > 100 µM (inactive)
HT-29
  GI50: > 100 µM (inactive)
SNB-78
  GI50: > 100 µM (inactive)
UACC-257
  GI50: > 100 µM (inactive)
TK-10
  GI50: > 100 µM (inactive)
SF-295
  GI50: > 100 µM (inactive)
NCI-H522
  GI50: > 100 µM (inactive)
EKVX
  GI50: > 100 µM (inactive)
OVCAR-5
  GI50: > 100 µM (inactive)

## CNC(=O)N(CCCCC(NC(C)=O)C(=O)NCc1ccccc1)Cc1ccccc1 (centres undefined)
M14
  GI50: > 100 µM (inactive)
SNB-75
  GI50: > 100 µM (inactive)
M19-MEL
  GI50: > 100 µM (inactive)
HCT-15
  GI50: > 100 µM
XF498
  GI50: > 100 µM (inactive)
HOP-62
  GI50: > 100 µM (inactive)
KM12
  GI50: > 100 µM (inactive)
Malme-3M
  GI50: > 100 µM (inactive)
MOLT-4
  GI50: > 100 µM (inactive)
SK-MEL-2
  GI50: > 100 µM (inactive)
DMS-114
  GI50: > 100 µM (inactive)
K562
  GI50: > 100 µM (inactive)
HCT-116
  GI50: > 100 µM (inactive)
COLO 205
  GI50: > 100 µM (inactive)
RPMI-8226
  GI50: > 100 µM (inactive)
KM-20L2
  GI50: > 100 µM (inactive)
NCI-H23
  GI50: > 100 µM (inactive)
CCRF-CEM
  GI50: > 100 µM (inactive)
SK-MEL-28
  GI50: > 100 µM (inactive)
NCI-H226
  GI50: > 100 µM (inactive)
UO-31
  GI50: > 100 µM (inactive)
A549
  GI50: > 100 µM (inactive)
A498
  GI50: > 100 µM (inactive)
SW-620
  GI50: > 100 µM (inactive)
786-0
  GI50: > 100 µM (inactive)
SNB-19
  GI50: > 100 µM (inactive)
HCC 2998
  GI50: > 100 µM (inactive)
IGROV-1
  GI50: > 100 µM (inactive)
ACHN
  GI50: > 100 µM (inactive)
NCI-H460
  GI50: > 100 µM (inactive)
UACC-62
  GI50: > 100 µM (inactive)
SN12C
  GI50: > 100 µM (inactive)
DMS-273
  GI50: > 100 µM (inactive)
SK-OV-3
  GI50: > 100 µM (inactive)
DLD-1
  GI50: > 100 µM (inactive)
LXFL 529
  GI50: > 100 µM (inactive)
RXF 393
  GI50: > 100 µM (inactive)
SF-268
  GI50: > 100 µM (inactive)
CAKI-1
  GI50: > 100 µM (inactive)
OVCAR-8
  GI50: > 100 µM (inactive)
OVCAR-4
  GI50: > 100 µM (inactive)
LOX IMVI
  GI50: > 100 µM (inactive)
SF-539
  GI50: > 100 µM (inactive)
SK-MEL-5
  GI50: > 100 µM (inactive)
HOP-92
  GI50: > 100 µM (inactive)
OVCAR-3
  GI50: > 100 µM (inactive)
U-251
  GI50: > 100 µM (inactive)
RXF 631
  GI50: > 100 µM (inactive)
HT-29
  GI50: > 100 µM (inactive)
SNB-78
  GI50: > 100 µM (inactive)
UACC-257
  GI50: > 100 µM (inactive)
TK-10
  GI50: > 100 µM (inactive)
SF-295
  GI50: > 100 µM (inactive)
NCI-H522
  GI50: > 100 µM (inactive)
EKVX
  GI50: > 100 µM (inactive)
OVCAR-5
  GI50: > 100 µM (inactive)

## COc1cc(NS(C)(=O)=O)ccc1NCc1c2ccccc2nc2ccccc12
M14
  GI50: 52.6 µM (inactive)
SNB-75
  GI50: > 100 µM (inactive)
M19-MEL
  GI50: > 10 µM (inactive)
HCT-15
  GI50: 21.7 µM
XF498
  GI50: 33.4 µM (inactive)
KM12
  GI50: 7.66 µM (inactive)
Malme-3M
  GI50: 31.5 µM (inactive)
MOLT-4
  GI50: 3.27 µM (inactive)
SK-MEL-2
  GI50: 44.4 µM (inactive)
DMS-114
  GI50: 17.3 µM (inactive)
K562
  GI50: 7.87 µM (inactive)
HCT-116
  GI50: 3.45 µM (inactive)
COLO 205
  GI50: 70.1 µM (inactive)
RPMI-8226
  GI50: 22.5 µM (inactive)
KM-20L2
  GI50: 50.8 µM (inactive)
NCI-H23
  GI50: 31 µM (inactive)
CCRF-CEM
  GI50: 4.18 µM (inactive)
SK-MEL-28
  GI50: 49.7 µM (inactive)
HL-60
  GI50: 13.5 µM (inactive)
NCI-H226
  GI50: > 100 µM (inactive)
UO-31
  GI50: 19.1 µM (inactive)
A549
  GI50: 67 µM (inactive)
SW-620
  GI50: 26.7 µM (inactive)
786-0
  GI50: 40.6 µM (inactive)
SNB-19
  GI50: 51.8 µM (inactive)
HCC 2998
  GI50: 40.6 µM (inactive)
IGROV-1
  GI50: 29.4 µM (inactive)
ACHN
  GI50: 29.4 µM (inactive)
SR
  GI50: 4.71 µM (inactive)
NCI-H460
  GI50: 34.5 µM (inactive)
UACC-62
  GI50: > 100 µM (inactive)
SN12C
  GI50: 28.3 µM (inactive)
DMS-273
  GI50: 28.4 µM (inactive)
SK-OV-3
  GI50: > 100 µM (inactive)
DLD-1
  GI50: 17.1 µM (inactive)
LXFL 529
  GI50: 29 µM (inactive)
RXF 393
  GI50: 13.9 µM (inactive)
SF-268
  GI50: 32.1 µM (inactive)
CAKI-1
  GI50: 21.7 µM (inactive)
OVCAR-8
  GI50: 30.9 µM (inactive)
OVCAR-4
  GI50: 0.0571 µM (active)
LOX IMVI
  GI50: 23.2 µM (inactive)
SF-539
  GI50: 24.3 µM (inactive)
HOP-92
  GI50: 17.3 µM (inactive)
OVCAR-3
  GI50: 43.5 µM (inactive)
U-251
  GI50: 76.6 µM (inactive)
RXF 631
  GI50: 15 µM (inactive)
HT-29
  GI50: 31.6 µM (inactive)
UACC-257
  GI50: 32.9 µM (inactive)
TK-10
  GI50: > 100 µM (inactive)
SF-295
  GI50: 64 µM (inactive)
NCI-H522
  GI50: 24.3 µM (inactive)
EKVX
  GI50: 42.6 µM (inactive)
OVCAR-5
  GI50: > 100 µM (inactive)
